From patent publication US20100021918A1, “METHOD FOR ASSAYING ACTION OF ANTITUMOR AGENT USING SPLICING DEFECTS AS INDEX” (Eisai R&D Management Co., Ltd., priority 2007, published 2010)

Test system: human colon carcinoma cell strain WiDr
Assay: Microarray analysis (Human Exon 1.0 ST Array) of intron expression, Table 1
Format: cell-based
Settings: six hours
Procedure: Using RNA purified from human colon carcinoma cell strain WiDr treated with 14 nM of (8E,12E,14E)-7-((4-cycloheptylpiperazin-1-yl)carbonyl)oxy-3,6,16,21-tetrahydroxy-6,10,12,16,20-pentamethyl-18,19-epoxytricosa-8,12,14-trien-11-olide (also referred to as “[…]”) for six hours, microarray analysis (Human Exon 1.0 ST Array: Affymetrix) was carried out. Not only does this array comprehensively cover the exons for all genes, but it is also designed to have probes for regions estimated as potential exons by a computer prediction program, which enables detection of the expression of the exons and introns of all genes in theory.
WiDr cells were first suspended in RPMI1640 medium (containing 10% FBS, penicillin, and streptomycin) and seeded in a 10 cm dish (2×10^6 cells/dish). After an overnight culture in an incubator with 5% carbon dioxide gas at 37° C., the medium was changed with medium containing 14 nM of (8E,12E,14E)-7-((4-cycloheptylpiperazin-1-yl)carbonyl)oxy-3,6,16,21-tetrahydroxy-6,10,12,16,20-pentamethyl-18,19-epoxytricosa-8,12,14-trien-11-olide or containing vehicle alone. After cultured for additional six hours, TRI reagent (SIGMA) were added to the cells and the cells were harvested. RNA was purified in accordance with the protocol of TRI reagent, followed by further purification with RNeasy (QIAGEN). Absorbance at 260 nm was measured to quantify an amount of RNA. This experiment was repeated three times and RNA samples (n=3) were prepared.
Ribosomal RNA was removed from 1 μg of each total RNA of control cells (n=3) and cells with the treatment (n=3) by using RiboMinus Human/Mouse Transcriptome Isolation Kit (Invitrogen). Single stranded cDNA synthesis, double stranded cDNA synthesis, cRNA synthesis, second single stranded cDNA synthesis, cDNA fragmentation, and cDNA labeling in order were carried out for the total RNA from which ribosomal RNA was removed, by using GeneChip Whole Transcript Sense Target Labeling and Control Reagents (Affymetrix) to make a cDNA probe. The cDNA probe was used for hybridization with Human Exon 1.0 ST Array (Affymetrix). The array was washed and stained, and luminescence intensity was measured by a scanner.
The expression level of the probe set and the gene was quantified by using Expression Console Ver. 1.0 (Affymetrix) with Summarization Method and Normalization Method being set to “Median polish as used in RMA” and “None”, respectively. The expression level of the probe was normalized with that of the gene. Welch's t-test was conducted for the treated group and the control group to determine a p value, which was converted into a q value by controlling False Discovery Ratio to pick out a significant probe set.
Probe sets showing that the q value was less than 1%; the normalized change in the level expression of the probe set in the group with the treatment was more than 10 times; the expression level of the probe set and the gene in the group with the treatment was more than 100; and probe set annotation was “extended, full, free”, were picked out and further arranged by gene. A gene was, when more than one probe sets therefor were found, determined as a candidate gene with increased expression level of the intron regions (Table 1). In Table 1, for the gene evaluated, gene name (Gene Name), abbreviated name (Gene Symbol), accession number (Accession), alias name (Synonym), transcription number in Human Exon 1.0 ST Array (Human Exon 1.0 ST Array), chromosome number (Chromosome), type of strand (Strand), start region (Start), stop region (Stop), and change in expression level (Fold Change) were respectively shown.

In the case of `CCC(O)C(C)C1OC1CC(C)(O)/C=C/C=C(\C)C1OC(=O)CC(O)CCC(C)(O)C(OC(=O)N2CCN(C3CCCCCC3)CC2)/C=C/C1C` (centres unmarked) [E7107, (8E,12E,14E)-7-((4-cycloheptylpiperazin-1-yl)carbonyl)oxy-3,6,16,21-tetrahydroxy-6,10,12,16,20-pentamethyl-18,19-epoxytricosa-8,12,14-trien-11-olide], the “Fold Change (change in expression level, intron probe sets) ADRM1” value (gene ADRM1, 14 nM) was 13.51, the “Fold Change (change in expression level, intron probe sets) AK2” value (gene AK2, 14 nM) was 10.05 and the “Fold Change (change in expression level, intron probe sets) ARFIP2” value (gene ARFIP2, 14 nM) was 12.04. The “Fold Change (change in expression level, intron probe sets) ARHGAP12” value (gene ARHGAP12, 14 nM) was 11.60, the “Fold Change (change in expression level, intron probe sets) ATP1B1” value (gene ATP1B1, 14 nM) was 12.11 and the “Fold Change (change in expression level, intron probe sets) BAT2D1” value (gene BAT2D1, 14 nM) was 11.26. The “Fold Change (change in expression level, intron probe sets) BPTF” value (gene BPTF, 14 nM) was 17.61, the “Fold Change (change in expression level, intron probe sets) BXDC2” value (gene BXDC2, 14 nM) was 25.94 and the “Fold Change (change in expression level, intron probe sets) C6orf166” value (gene C6orf166, 14 nM) was 19.23. The “Fold Change (change in expression level, intron probe sets) C9orf86 // KIAA1984” value (gene C9orf86 // KIAA1984, 14 nM) was 13.66, the “Fold Change (change in expression level, intron probe sets) C10orf18” value (gene C10orf18, 14 nM) was 19.86 and the “Fold Change (change in expression level, intron probe sets) C16orf80” value (gene C16orf80, 14 nM) was 16.25. The “Fold Change (change in expression level, intron probe sets) CABLES1” value (gene CABLES1, 14 nM) was 16.94, the “Fold Change (change in expression level, intron probe sets) CCND1” value (gene CCND1, 14 nM) was 12.66 and the “Fold Change (change in expression level, intron probe sets) CCNL2” value (gene CCNL2, 14 nM) was 12.84. The “Fold Change (change in expression level, intron probe sets) CDC20” value (gene CDC20, 14 nM) was 18.22, the “Fold Change (change in expression level, intron probe sets) CENPL” value (gene CENPL, 14 nM) was 14.13 and the “Fold Change (change in expression level, intron probe sets) DCBLD2” value (gene DCBLD2, 14 nM) was 19.52. For the same compound, the “Fold Change (change in expression level, intron probe sets) DDEF2” value (gene DDEF2, 14 nM) was 22.92, the “Fold Change (change in expression level, intron probe sets) DKC1” value (gene DKC1, 14 nM) was 11.53 and the “Fold Change (change in expression level, intron probe sets) DNAJB1” value (gene DNAJB1, 14 nM) was 11.95. The “Fold Change (change in expression level, intron probe sets) EIF2C2” value (gene EIF2C2, 14 nM) was 21.33, the “Fold Change (change in expression level, intron probe sets) EIF4A1” value (gene EIF4A1, 14 nM) was 16.15 and the “Fold Change (change in expression level, intron probe sets) EIF5” value (gene EIF5, 14 nM) was 12.30. For the same compound, the “Fold Change (change in expression level, intron probe sets) FOXK2” value (gene FOXK2, 14 nM) was 18.79, the “Fold Change (change in expression level, intron probe sets) GNB2L1” value (gene GNB2L1, 14 nM) was 11.87 and the “Fold Change (change in expression level, intron probe sets) GNL3” value (gene GNL3, 14 nM) was 14.08. For the same compound, the “Fold Change (change in expression level, intron probe sets) GTPBP4” value (gene GTPBP4, 14 nM) was 12.24, the “Fold Change (change in expression level, intron probe sets) HMGCS1” value (gene HMGCS1, 14 nM) was 13.21 and the “Fold Change (change in expression level, intron probe sets) HSPA9” value (gene HSPA9, 14 nM) was 13.33. The “Fold Change (change in expression level, intron probe sets) HSPH1” value (gene HSPH1, 14 nM) was 15.12, the “Fold Change (change in expression level, intron probe sets) IDI1” value (gene IDI1, 14 nM) was 19.25 and the “Fold Change (change in expression level, intron probe sets) ILF2” value (gene ILF2, 14 nM) was 13.79. The “Fold Change (change in expression level, intron probe sets) ITGB1” value (gene ITGB1, 14 nM) was 21.48, the “Fold Change (change in expression level, intron probe sets) JARID1C” value (gene JARID1C, 14 nM) was 14.09 and the “Fold Change (change in expression level, intron probe sets) KIAA0174” value (gene KIAA0174, 14 nM) was 19.65. The “Fold Change (change in expression level, intron probe sets) KIAA1429” value (gene KIAA1429, 14 nM) was 14.19, the “Fold Change (change in expression level, intron probe sets) KLHL18” value (gene KLHL18, 14 nM) was 15.00 and the “Fold Change (change in expression level, intron probe sets) KRT18” value (gene KRT18, 14 nM) was 13.41. The “Fold Change (change in expression level, intron probe sets) LMO7” value (gene LMO7, 14 nM) was 14.34, the “Fold Change (change in expression level, intron probe sets) LTV1” value (gene LTV1, 14 nM) was 18.37 and the “Fold Change (change in expression level, intron probe sets) MAT2A” value (gene MAT2A, 14 nM) was 12.29. For the same compound, the “Fold Change (change in expression level, intron probe sets) MBNL2” value (gene MBNL2, 14 nM) was 28.86, the “Fold Change (change in expression level, intron probe sets) MYO1E” value (gene MYO1E, 14 nM) was 14.49 and the “Fold Change (change in expression level, intron probe sets) NET1” value (gene NET1, 14 nM) was 13.02. The “Fold Change (change in expression level, intron probe sets) NUPL1” value (gene NUPL1, 14 nM) was 12.63, the “Fold Change (change in expression level, intron probe sets) PUM2” value (gene PUM2, 14 nM) was 19.01 and the “Fold Change (change in expression level, intron probe sets) RAF1” value (gene RAF1, 14 nM) was 16.41. For the same compound, the “Fold Change (change in expression level, intron probe sets) RIOK3” value (gene RIOK3, 14 nM) was 13.67, the “Fold Change (change in expression level, intron probe sets) RNF40” value (gene RNF40, 14 nM) was 15.84 and the “Fold Change (change in expression level, intron probe sets) RSPRY1” value (gene RSPRY1, 14 nM) was 14.32. The “Fold Change (change in expression level, intron probe sets) SART3” value (gene SART3, 14 nM) was 15.13, the “Fold Change (change in expression level, intron probe sets) SLC2A1” value (gene SLC2A1, 14 nM) was 16.44 and the “Fold Change (change in expression level, intron probe sets) SMAD3” value (gene SMAD3, 14 nM) was 12.88. The “Fold Change (change in expression level, intron probe sets) SMURF2” value (gene SMURF2, 14 nM) was 16.60, the “Fold Change (change in expression level, intron probe sets) SNX19” value (gene SNX19, 14 nM) was 17.12 and the “Fold Change (change in expression level, intron probe sets) SPRED2” value (gene SPRED2, 14 nM) was 31.56. For the same compound, the “Fold Change (change in expression level, intron probe sets) ST3GAL1” value (gene ST3GAL1, 14 nM) was 12.77, the “Fold Change (change in expression level, intron probe sets) SUPV3L1” value (gene SUPV3L1, 14 nM) was 18.81 and the “Fold Change (change in expression level, intron probe sets) TARDBP” value (gene TARDBP, 14 nM) was 18.13. The “Fold Change (change in expression level, intron probe sets) TES” value (gene TES, 14 nM) was 15.95, the “Fold Change (change in expression level, intron probe sets) TINF2” value (gene TINF2, 14 nM) was 11.05 and the “Fold Change (change in expression level, intron probe sets) TJP1” value (gene TJP1, 14 nM) was 11.55. For the same compound, the “Fold Change (change in expression level, intron probe sets) UBE3A” value (gene UBE3A, 14 nM) was 19.35, the “Fold Change (change in expression level, intron probe sets) USP47” value (gene USP47, 14 nM) was 12.32 and the “Fold Change (change in expression level, intron probe sets) VIL2” value (gene VIL2, 14 nM) was 17.50. For the same compound, the “Fold Change (change in expression level, intron probe sets) WAC” value (gene WAC, 14 nM) was 18.53, the “Fold Change (change in expression level, intron probe sets) WDR45L” value (gene WDR45L, 14 nM) was 12.59 and the “Fold Change (change in expression level, intron probe sets) WDR73” value (gene WDR73, 14 nM) was 30.61. For the same compound, the “Fold Change (change in expression level, intron probe sets) WDR74” value (gene WDR74, 14 nM) was 12.70, the “Fold Change (change in expression level, intron probe sets) WEE1” value (gene WEE1, 14 nM) was 12.26 and the “Fold Change (change in expression level, intron probe sets) YTHDC1” value (gene YTHDC1, 14 nM) was 10.66. The “Fold Change (change in expression level, intron probe sets) ZNF384” value (gene ZNF384, 14 nM) was 12.13 and the “Fold Change (change in expression level, intron probe sets) ZNF410” value (gene ZNF410, 14 nM) was 12.01.
